In patent US5434295A (priority 1994, dated 1995):
Entries after “also recorded” stand apart in the source; their conditions may differ.

Assays:
[1] = system: Rat brain NMDA receptors; test: Blockade of NMDA response in Xenopus oocytes injected with rat brain RNA; type: biochemical
Text: Blockade of NMDA-induced voltage changes in Xenopus oocytes: Frog oocytes can be injected with genetic material from various species and organs, resulting in the expression of the various molecules encoded by this material in the oocyte. Injection of rat brain RNA provides active NMDA receptors on the ooctye surface. Application of NMDA results in changes in the electrical activity recorded from the oocytes. Various NMDA antagonists block the NMDA-induced changes in electrical activity and their potency and dose dependence in this system indicate their potency and mode of action as NMDA antagonists.
The oocyte is the most widely used system for studying the molecular, biophysical and pharmacological properties of expressed voltage- or transmitter-operated ion channels. This giant cell offers several advantages for this type of studies. It can be readily used for two-electrode voltage clamp studies, translates injected mRNA from different sources and functionally expresses the translated proteins, and it is also readily amenable for intracellular micron injections. Importantly, the recordings of neurotransmitter- or voltage-induced currents in a single oocyte are extremely stable and can performed repeatedly for 2-3 hours; this allows the performance of a full dose-response relation in single oocytes.
Rat brain NMDA receptors were expressed in Xenopus oocytes injected with total rat brain RNA. Dascal and Lotan. The conditions for injection culture and electrical recording from oocytes were as described by Dascal and Lotan (in: Methods in Molecular Biology, Longstaff and Revest, eds. Vol. 13, Chapter 13, Humana Press, N.J., 1992).
Briefly, female Xenopus were anesthetized by immersion in water containing 0.15% tricaine methanesulfonate and a small incision was made in the lower abdomen. Ovary fragments were removed into ND-96.
The oocytes were defolliculated by the collagenase treatment in order to remove the follicle cell layer. Defolliculated oocytes were injected with total rat brain RNA and incubated for 2-4 days at 22° C. in sterile NDE-96 solution. ND-96 solution contains (in mM): NaCl - 96, KCl - 2, CaCl2 - 1.8, Hepes - 5 (pH=7.4-7.6). NDE-96 contains in addition, 2.5 mM sodium pyruvate, 100 unit/ml penicillin, 100 μg/ml streptomycin. A single oocyte was placed in a 1 ml bath constantly superfused with ND-96 solution at room temperature. The cell was impaled with two microelectrodes and held at membrane potential of -60 mV using voltage clamp circuit.
RNA was extracted from the brain of 14-day old rat brain. Each oocyte was injected with 50 nl total RNA (4-8 mg/ml in water, stored at -80° C. in […] aliquots).
NMDA receptors were activated by application of NMDA with glycine in Mg-free ND-96 solution. It was shown previously and also observed in this study that the entry of calcium ions through the NMDA receptor-channel evokes a Ca-dependent Cl^- current which appeared as an early inward current peak preceding and overlapping the actual NMDA response and hindering a quantitative pharmacological study of NMDA antagonists. Experimental conditions were therefore worked out aimed at eliminating the Cl^- current. The best protocol employed the use of Ca-free, Ba-containing solution, avoiding repetitive application of antagonists, as well as other conditions including optimal perfusion rate and optimal intervals between repetitive NMDA applications.
Several NMDA receptor blockers were tested. These compounds have […] and have to be dissolved in 100% dimethyl sulfoxide (DMSO) and diluted for use in ND-96 that contained 1% DMSO. Therefore, the effect of 1% DMSO on the response to 10^-4 M NMDA and 5×10^-6 M glycine was examined. DMSO had no effect on NMDA response in three different cells.
Eight putative NMDA antagonists of the HU group, including 270, 271 and 259 were tested for anti-NMDA activity at a glutamate receptor. […]

[2] = system: acetylcholine-muscarinic receptor; type: binding, rat; conditions: 100 μM analogue
[3] = system: hypobaric anoxia in mice; test: Survival of mice exposed to hypobaric anoxia; type: in vivo; conditions: 200 mmHg, 5 mg/kg i.p. in MCT oil, 45 min before
Procedure: Protection against hypobaric anoxia in mice: Exposure of mice to a hypobaric (200 mmHg) atmosphere reduces the amount of oxygen available to the animals and results in death within 1-2 minutes in untreated mice. Pretreatment with compounds that can counteract the effects of oxygen deprivation prolong (double or more) the survival time of mice subjected to this treatment. The increase in survival time is a measure of the potency of the compounds in counteracting anoxic damage in vivo.
Hypobaric Anoxia was used as a system for testing the neuroprotective effects of test compounds, HU-270 and HU-271. The experimental paradigm was derived from that described by Gotti and Depoortere, Congres de Circ. Cerebrale, Toulouse, 105-107 (1979). Briefly, mice in groups of 5 were placed in a chamber which was equilibrated at an atmospheric pressure of 200 mmHg (by evacuation via a vacuum pump). The mice were observed until they stopped breathing and the time was recorded for each mouse. The test compounds were administered 45 min before introducing the animals into the chamber. In all cases the experiment was performed in a masked vehicle controlled study to avoid bias on the part of the observer. Each mouse received the drug dissolved in MCT oil intraperitoneally at a dose of 5 mg/kg, or the vehicle alone (MCT oil, 5 ml/kg).

[4] = system: MK-801 sites located at the NMDA receptor ion channel; test: Inhibition of [3H]MK-801 binding to rat forebrain membranes; conditions: for % inhibition of tritiated ligand binding to membranes, 3[H]-MK-801: 100 μM analogue
Text: Binding to the NMDA receptor linked channel: Non competitive antagonists of NMDA, the primary example of which is the compound MK-801, bind to a site within the NMDA receptor channel thus preventing the activation of the receptor-channel complex and the consequent neurotoxicity. The ability of various compounds to compete with the binding of tritium labeled MK-801 to brain membranes is considered a measure of their potency as NMDA non-competitive antagonists.
The association of pinene derivatives with acetylcholine-muscarinic receptor and with MK-801 sites located at the NMDA receptor ion channel.
Inhibition of ^3 [H]MK-801 binding to rat forebrain membranes by the test HU-211 compounds was carried out as described for HU-211 in Eshhar et al., NeuroReport 5, No. 3, 1993) (Methods section). The test compounds were solubilized in a mixture of ethanol:Emulfor:water (20:3:57).

[5] = system: GABA receptors; test: Effect on GABA responses in oocytes; type: biochemical, rat
[6] = system: AMPA/kainate receptors; test: Effect on kainate responses in oocytes; type: biochemical, rat
[7] = system: voltage-dependent P-type calcium channels; test: Inhibition of voltage-dependent P-type calcium channels expressed in oocytes; type: biochemical, rat

SMILES	% inhibition of NMDA ([1]; 1 μM)	% inhibition of NMDA ([1]; 10 μM)	% inhibition of tritiated ligand binding to membranes, 3[H]QNB [2]	survival of mice exposed to hypobaric anoxia [3]	% inhibition of tritiated ligand binding to membranes, 3[H]-MK-801 [4]	selectivity NMDA over AMPA/kainate receptors [1]	mode of NMDA antagonism ([1]; Lineweaver-Burke analysis)	concentration at which inhibitory activity was first apparent ([1]; NMDA response)	effect on GABA responses [5]	effect on kainate responses [6]	Ki ([4]; [3H]MK801 binding, rat forebrain membranes, representative experiment in triplicate (HU259), read-out: inhibition constant (K1))	inhibition of activity of voltage-dependent P-type calcium channels [7]
CCCCCCC(C)(C)c1cc(OC(C)=O)c([C@H]2C=C(C(=O)NCCO)[C@H]3C[C@@H]2C3(C)C)c(OC(C)=O)c1 [HU-271]	16%	20%	98.3%	increased survival; also recorded: statistically significant increase of survival time	46.3%							
CCCCCCC(C)(C)c1cc(OC(C)=O)c([C@H]2C=C(C(=O)O)[C@H]3C[C@@H]2C3(C)C)c(OC(C)=O)c1 [(+)-4-[4-DMH-2,6 diacetoxyphenyl]-2-carboxy-6,6-dimethylbicyclo[3.1.1]hept-2-en]	35%	41%	98.0%		90.0%	selective for the NMDA over AMPA/kainate receptors	non-competitive NMDA antagonists	10 nM	no effect	no effect	7.6 µM	did not inhibit
CCCCCCC(C)(C)c1cc(OC(C)=O)c([C@H]2C=C(C(=O)N(CC)CC)[C@H]3C[C@@H]2C3(C)C)c(OC(C)=O)c1 [HU-270]	20%			increased survival; also recorded: statistically significant increase of survival time								
